Assay results from the supplement of paper PMC5908809.

Experiments:
[1] = test system: normal NK cells expanded with K562-aAPC; experiment: percent inhibition of viability; higher = more inhibition; settings: 72 h, IL-2 2.5 ng/mL
Experimental: (§1)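 Drug sensitivity and resistance testing on K562-aAPC-expanded normal NK cells: 5 concentrations (10-fold steps over a 10,000-fold range), 72 h at 37 °C, viability by CellTiter-Glo normalised to DMSO and benzethonium chloride controls; DSS from the fitted curve.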

DERL-7 (IL-2 2.5 ng/mL) [2] = experiment: drug sensitivity score (DSS) (DSS units); higher = more sensitive; extreme values may be limits of the assay; settings: 72 h
[3] = test system: normal primary NK cells, pool 3 (3 donors) (IL-2 2.5 ng/mL); experiment: as above; settings: 72 h
KHYG-1 (IL-2 2.5 ng/mL) [4] = experiment: as above; settings: 72 h
[5] = test system: normal primary NK cells, pool 2 (3 donors) (IL-2 2.5 ng/mL); experiment: as above; settings: 72 h
SNK-6 (IL-2 2.5 ng/mL) [6] = experiment: as above; settings: 72 h
NK-YS (IL-2 2.5 ng/mL) [7] = experiment: as above; settings: 72 h
[8] = test system: normal primary NK cells, pool 1 (3 donors), resting (IL-2 0 ng/mL); experiment: as above; settings: 72 h
KAI3 (IL-2 2.5 ng/mL) [9] = experiment: as above; settings: 72 h
IMC-1 (IL-2 20 ng/mL) [10] = experiment: as above; settings: 72 h
[11] = test system: normal primary NK cells, pool 1 (3 donors) (IL-2 2.5 ng/mL); experiment: as above; settings: 72 h
NK-92 (IL-2 2.5 ng/mL) [12] = experiment: as above; settings: 72 h
YT (IL-2 2.5 ng/mL) [13] = experiment: as above; settings: 72 h
NKL (IL-2 2.5 ng/mL) [14] = experiment: as above; settings: 72 h
DERL-7 (IL-2 2.5 ng/mL) [15] = experiment: percent inhibition of viability; higher = more inhibition; settings: 72 h
[16] = test system: normal primary NK cells, pool 3 (3 donors) (IL-2 2.5 ng/mL); experiment: as above; settings: 72 h
KHYG-1 (IL-2 2.5 ng/mL) [17] = experiment: as above; settings: 72 h
[18] = test system: normal primary NK cells, pool 2 (3 donors) (IL-2 2.5 ng/mL); experiment: as above; settings: 72 h
SNK-6 (IL-2 2.5 ng/mL) [19] = experiment: as above; settings: 72 h
NK-YS (IL-2 2.5 ng/mL) [20] = experiment: as above; settings: 72 h
[21] = test system: normal primary NK cells, pool 1 (3 donors), resting (IL-2 0 ng/mL); experiment: as above; settings: 72 h
KAI3 (IL-2 2.5 ng/mL) [22] = experiment: as above; settings: 72 h
IMC-1 (IL-2 20 ng/mL) [23] = experiment: as above; settings: 72 h
[24] = test system: normal primary NK cells, pool 1 (3 donors) (IL-2 2.5 ng/mL); experiment: as above; settings: 72 h
NK-92 (IL-2 2.5 ng/mL) [25] = experiment: as above; settings: 72 h
YT (IL-2 2.5 ng/mL) [26] = experiment: as above; settings: 72 h
NKL (IL-2 2.5 ng/mL) [27] = experiment: as above; settings: 72 h
[28] = test system: normal NK cells expanded with K562-aAPC; experiment: drug sensitivity score (DSS) (DSS units); higher = more sensitive; extreme values may be limits of the assay; settings: 72 h; IL-2 2.5 ng/mL
Experimental: as §1

Cc1nc(Nc2n[nH]c3c2CN(C(=O)N[C@H](CN(C)C)c2ccccc2)C3(C)C)c2sccc2n1 (max concentration tested 10000 nM)
percent inhibition of viability [%]
Settings | 1 nM | 10 nM | 100 nM | 1000 nM | 10000 nM
DERL-7 (IL-2 2.5 ng/mL) [15] | 5.19 | 43.4 | 60.3 | 59.5 | 100
IMC-1 (IL-2 20 ng/mL) [23] | -7.89 | 94 | 100 | 100 | 101
KAI3 (IL-2 2.5 ng/mL) [22] | 9.34 | 25.2 | 38.2 | 52.7 | 103
KHYG-1 (IL-2 2.5 ng/mL) [17] | 3.44 | 16.8 | 81.4 | 96.4 | 106
NK-92 (IL-2 2.5 ng/mL) [25] | 2.81 | 5.29 | 27.2 | 59.5 | 105
NK-YS (IL-2 2.5 ng/mL) [20] | 0.35 | 42.8 | 54.1 | 57.7 | 101
NKL (IL-2 2.5 ng/mL) [27] | -10.4 | 9.99 | 31.3 | 50.3 | 103
SNK-6 (IL-2 2.5 ng/mL) [19] | -2.61 | 16.3 | 16 | 31.2 | 87.1
YT (IL-2 2.5 ng/mL) [26] | 0.99 | 13.6 | 41.7 | 56 | 104
[1] | 4.54 | 6.07 | 22.4 | 41.8 | 101
[16] | -6.36 | 3.67 | 21.6 | 29.7 | 98.9
[18] | -7.71 | 9.61 | 27.4 | 49.4 | 98.1
[21] | 5.47 | -19.5 | 8.53 | 35.1 | 92.2
[24] | 5.07 | 3.65 | 18.4 | 34.4 | 98.8

Settings | drug sensitivity score
DERL-7 (IL-2 2.5 ng/mL) [2] | 24.7
IMC-1 (IL-2 20 ng/mL) [10] | 41.6
KAI3 (IL-2 2.5 ng/mL) [9] | 18.1
KHYG-1 (IL-2 2.5 ng/mL) [4] | 29.5
NK-92 (IL-2 2.5 ng/mL) [12] | 15.2
NK-YS (IL-2 2.5 ng/mL) [7] | 23
NKL (IL-2 2.5 ng/mL) [14] | 14.4
SNK-6 (IL-2 2.5 ng/mL) [6] | 8.41
YT (IL-2 2.5 ng/mL) [13] | 17.5
[3] | 8.84
[5] | 13.5
[8] | 9.24
[11] | 9.34
[28] | 11.5

S=C(NCc1ccc2c(c1)OCO2)N1CCN(c2ncnc3c2oc2ccccc23)CC1 [Amuvatinib] (max concentration tested 10000 nM)
percent inhibition of viability [%]
Settings | 1 nM | 10 nM | 100 nM | 1000 nM | 10000 nM
DERL-7 (IL-2 2.5 ng/mL) [15] | 0.19 | 2.67 | 18 | 55.9 | 90.5
IMC-1 (IL-2 20 ng/mL) [23] | -1.71 | -0.29 | 1.01 | 41.2 | 44.1
KAI3 (IL-2 2.5 ng/mL) [22] | 3.55 | -2.41 | 7.21 | 17.6 | 54.5
KHYG-1 (IL-2 2.5 ng/mL) [17] | -5.63 | -5.61 | -1.04 | 24.3 | 73.6
NK-92 (IL-2 2.5 ng/mL) [25] | -8.12 | -11.4 | -3.54 | 36.4 | 65.1
NK-YS (IL-2 2.5 ng/mL) [20] | -2.83 | -6.84 | -2.71 | 12.6 | 91
NKL (IL-2 2.5 ng/mL) [27] | -10.5 | -7.21 | 6.91 | 53.6 | 95
SNK-6 (IL-2 2.5 ng/mL) [19] | 13.3 | -6.01 | 16.5 | 40.9 | 60.9
YT (IL-2 2.5 ng/mL) [26] | -2.59 | -1.83 | 3.31 | 19.5 | 49.5
[1] | -2.56 | -1.86 | -4.91 | 0.6 | 18.6
[16] | -1.07 | 8.45 | 6.14 | 11.8 | 60.8
[18] | -4.53 | 2.76 | 7.13 | 11.1 | 69.2
[21] | 7.55 | 15.6 | 5.58 | 28.6 | 83.9
[24] | -0.46 | 10.3 | 3.46 | 19.5 | 80.3

Settings | drug sensitivity score
DERL-7 (IL-2 2.5 ng/mL) [2] | 12.9
IMC-1 (IL-2 20 ng/mL) [10] | 7.59
KAI3 (IL-2 2.5 ng/mL) [9] | 4.97
KHYG-1 (IL-2 2.5 ng/mL) [4] | 7.56
NK-92 (IL-2 2.5 ng/mL) [12] | 8.04
NK-YS (IL-2 2.5 ng/mL) [7] | 7.16
NKL (IL-2 2.5 ng/mL) [14] | 11.7
SNK-6 (IL-2 2.5 ng/mL) [6] | 9.4
YT (IL-2 2.5 ng/mL) [13] | 4.88
[3] | 5.25
[5] | 5.67
[8] | 8.27
[11] | 7.49
[28] | 0.55
